Experiments:
Format in all cases: in vivo
[1] = system: monocotyledonous and dicotyledonous weed plants; test: Pre-emergence herbicidal action (greenhouse pot test); settings: pre-emergence method; application rate of 0.5 kg and less of active substance per hectare; Sinapis alba, Chrysanthemum segetum, Avena sativa, Stellaria media, Echinochloa crus-galli, Lolium multiflorum, Setaria spp., Abutilon theophrasti, Amaranthus retrofluxus, Panicum miliaceum
Description: Seeds or rhizome pieces of monocotyledonous and dicotyledonous weed plants are placed in sandy loam in plastic pots and covered with soil. The compounds according to the invention, which are formulated in the form of wettable powders or emulsion concentrates, are then applied to the surface of the soil cover as aqueous suspension or emulsion at various dosages with an application rate of 600 to 800 l of water/ha (converted).
After the treatment, the pots are placed into a greenhouse and kept under good growth conditions for the weeds. The plant or emergence damage is scored visually after the untreated controls have emerged. As shown by the test results, the compounds according to the invention have good herbicidal pre-emergence activity against a broad spectrum of weed grasses and broad-leaved weeds.

[2] = system: monocotyledonous and dicotyledonous weeds; test: Post-emergence herbicidal action (greenhouse pot test); settings: post-emergence method; application rate of 0.5 kg or less of active substance per hectare; scored after approx. 3 to 4 weeks; Sinapis alba, Echinochloa crus-galli, Lolium multiflorum, Chrysanthemum segetum, Setaria spp., Abutilon theophrasti, Amaranthus retroflexus, Panicum miliaceum, Avena sativa
Description: Seeds or rhizone pieces of monocotyledonous and dicotyledonous weeds are placed in sandy loam in plastic pots, covered with soil and grown in the greenhouse under good growth conditions. Three weeks after sowing, the test plants are treated at the three-leaf stage. Various dosages of the compounds according to the invention, which are formulated as wettable powders or emulsion concentrates, are sprayed onto the green plant parts at an application rate of 600 to 800 l of water per ha (converted), and after the test plants have been left to stand in the greenhouse for approx. 3 to 4 weeks under optimum growth conditions, the effect of the preparations is scored visually by comparison with untreated controls. The compositions according to the invention also have good herbicidal post-emergence activity against a broad spectrum of economically important weed grasses and broad-leaved weeds.

[3] = system: harmful plants which are typical for rice crops; test: Action against harmful plants in rice (paddy rice conditions); settings: applied to the paddy water; approximately three weeks after application; Cyperus monti, Echinochloa crus-galli, Eleocharis acicularis, Sagittaria pygmaea; note: test concentration or dose not given here
Description: Transplanted and seeded rice and typical rice weeds are grown in the greenhouse until they have reached the three-leaf stage (Echinochloa 1.5-leaves) under paddy rice conditions (flooding level of the water: 2-3 cm) in closed plastic pots. They are then treated with the compounds according to the invention. To this end, the formulated active substances are suspended, dissolved or emulsified in water and applied to the paddy water of the test plants at various dosages by application by pouring.
After the treatment has been carried out in this way, the test plants are placed into the greenhouse under optimum growth conditions and are kept in this way over the entire experimental period.

crop plants = test: Crop plant tolerance (greenhouse, pre- and post-emergence); settings: visual scoring four to five weeks after application
Description: In further greenhouse experiments, seeds of a relatively large number of crop plants and weeds are placed in sandy loam and covered with soil. Some of the pots are treated immediately as described in Section 1, while the remaining pots are placed in the greenhouse until the plants have developed two to three real leaves, and they are then sprayed with various dosages of substances of the formula (I) according to invention as described in Section 2. Four to five weeks after the application and standing time in the greenhouse, it is found by means of visual scoring that the compounds according to the invention leave dicotyledonous crops such as, for example, soybeans, cotton, oilseed rape, sugar beet and potatoes unharmed when applied pre- and post-emergence, even at high rates of active compound. In addition, some substances also leave graminaceous crops such as, for example, barley, wheat, rye, sorghum, corn or rice, unharmed.

Cc1ccc2c(c1)C(Nc1ncnc(N)n1)C(C)(C)C2 (stereo not drawn) [Example 292]
herbicidal action against harmful plants, scored visually [1]: very good herbicidal action | herbicidal action against harmful plants, scored visually [2]: very good herbicidal action | herbicidal action against harmful plants typical for rice crops, scored visually [3]: very good herbicidal action | selectivity (crop plants versus weeds) (crop plants): in some cases high selectivity

Cc1cc2c(cc1C)C(Nc1ncnc(N)n1)C(C)C2 (stereo not drawn) [Example 293]
herbicidal action against harmful plants, scored visually [1]: very good herbicidal action | herbicidal action against harmful plants, scored visually [2]: very good herbicidal action | herbicidal action against harmful plants typical for rice crops, scored visually [3]: very good herbicidal action | selectivity (crop plants versus weeds) (crop plants): in some cases high selectivity

CC1Cc2ccc(F)cc2C1Nc1ncnc(N)n1 (stereo not drawn) [Example 282]
herbicidal action against harmful plants, scored visually [1]: very good herbicidal action | herbicidal action against harmful plants, scored visually [2]: very good herbicidal action | herbicidal action against harmful plants typical for rice crops, scored visually [3]: very good herbicidal action | selectivity (crop plants versus weeds) (crop plants): in some cases high selectivity

CC1Cc2ccccc2C1Nc1ncnc(N)n1 (stereo not drawn) [Example 198]
herbicidal action against harmful plants, scored visually [1]: very good herbicidal action | herbicidal action against harmful plants, scored visually [2]: very good herbicidal action | herbicidal action against harmful plants typical for rice crops, scored visually [3]: very good herbicidal action | selectivity (crop plants versus weeds) (crop plants): in some cases high selectivity

CC1Cc2cc(Cl)ccc2C1Nc1ncnc(N)n1 (stereo not drawn) [Example 58]
herbicidal action against harmful plants, scored visually [1]: very good herbicidal action | herbicidal action against harmful plants, scored visually [2]: very good herbicidal action | herbicidal action against harmful plants typical for rice crops, scored visually [3]: very good herbicidal action | selectivity (crop plants versus weeds) (crop plants): in some cases high selectivity

Cc1cccc2c1OCCC2Nc1ncnc(N)n1 (stereo not drawn) [Example 5]
herbicidal action against harmful plants, scored visually [1]: very good herbicidal action | herbicidal action against harmful plants, scored visually [2]: very good herbicidal action | herbicidal action against harmful plants typical for rice crops, scored visually [3]: very good herbicidal action | selectivity (crop plants versus weeds) (crop plants): in some cases high selectivity

Cc1cc(C)c2c(c1)C(Nc1ncnc(N)n1)CCO2 (stereo not drawn) [Example 4]
herbicidal action against harmful plants, scored visually [1]: very good herbicidal action | herbicidal action against harmful plants, scored visually [2]: very good herbicidal action | herbicidal action against harmful plants typical for rice crops, scored visually [3]: very good herbicidal action | selectivity (crop plants versus weeds) (crop plants): in some cases high selectivity

CC(=O)Nc1ncnc(NC2c3cc(F)ccc3CC2C)n1 (stereo not drawn) [Example 283]
herbicidal action against harmful plants, scored visually [1]: very good herbicidal action | herbicidal action against harmful plants, scored visually [2]: very good herbicidal action | herbicidal action against harmful plants typical for rice crops, scored visually [3]: very good herbicidal action | selectivity (crop plants versus weeds) (crop plants): in some cases high selectivity

Cc1ccc2c(c1)C(Nc1ncnc(N)n1)C(C)C2 (stereo not drawn) [Example 281]
herbicidal action against harmful plants, scored visually [1]: very good herbicidal action | herbicidal action against harmful plants, scored visually [2]: very good herbicidal action | herbicidal action against harmful plants typical for rice crops, scored visually [3]: very good herbicidal action | selectivity (crop plants versus weeds) (crop plants): in some cases high selectivity

CC1Cc2cc(F)ccc2C1Nc1ncnc(N)n1 (stereo not drawn) [Example 55]
herbicidal action against harmful plants, scored visually [1]: very good herbicidal action | herbicidal action against harmful plants, scored visually [2]: very good herbicidal action | herbicidal action against harmful plants typical for rice crops, scored visually [3]: very good herbicidal action | selectivity (crop plants versus weeds) (crop plants): in some cases high selectivity

CC1Cc2ccc(F)cc2C1Nc1ncnc(NC(=O)CCl)n1 (stereo not drawn) [Example 286]
herbicidal action against harmful plants, scored visually [1]: very good herbicidal action | herbicidal action against harmful plants, scored visually [2]: very good herbicidal action | herbicidal action against harmful plants typical for rice crops, scored visually [3]: very good herbicidal action | selectivity (crop plants versus weeds) (crop plants): in some cases high selectivity

Cc1cccc2c1C(Nc1ncnc(N)n1)C(C)C2 (stereo not drawn) [Example 290]
herbicidal action against harmful plants, scored visually [1]: very good herbicidal action | herbicidal action against harmful plants, scored visually [2]: very good herbicidal action | herbicidal action against harmful plants typical for rice crops, scored visually [3]: very good herbicidal action | selectivity (crop plants versus weeds) (crop plants): in some cases high selectivity

Nc1ncnc(NC2CCOc3ccc(F)cc32)n1 (stereo not drawn) [Example 289]
herbicidal action against harmful plants, scored visually [1]: very good herbicidal action | herbicidal action against harmful plants, scored visually [2]: very good herbicidal action | herbicidal action against harmful plants typical for rice crops, scored visually [3]: very good herbicidal action | selectivity (crop plants versus weeds) (crop plants): in some cases high selectivity

Cc1ccc2c(c1C)CCCC2Nc1ncnc(N)n1 (stereo not drawn) [Example 19]
herbicidal action against harmful plants, scored visually [1]: very good herbicidal action | herbicidal action against harmful plants, scored visually [2]: very good herbicidal action | herbicidal action against harmful plants typical for rice crops, scored visually [3]: very good herbicidal action | selectivity (crop plants versus weeds) (crop plants): in some cases high selectivity

CC1Cc2ccc(F)cc2C1Nc1ncnc(NC(=O)C(F)(F)F)n1 (stereo not drawn) [Example 285]
herbicidal action against harmful plants, scored visually [1]: very good herbicidal action | herbicidal action against harmful plants, scored visually [2]: very good herbicidal action | herbicidal action against harmful plants typical for rice crops, scored visually [3]: very good herbicidal action | selectivity (crop plants versus weeds) (crop plants): in some cases high selectivity

Cc1cc(F)cc2c1OCCC2Nc1ncnc(N)n1 (stereo not drawn) [Example 288]
herbicidal action against harmful plants, scored visually [1]: very good herbicidal action | herbicidal action against harmful plants, scored visually [2]: very good herbicidal action | herbicidal action against harmful plants typical for rice crops, scored visually [3]: very good herbicidal action | selectivity (crop plants versus weeds) (crop plants): in some cases high selectivity

CCC1Cc2ccc(C)cc2C1Nc1ncnc(N)n1 (stereo not drawn) [Example 291]
herbicidal action against harmful plants, scored visually [1]: very good herbicidal action | herbicidal action against harmful plants, scored visually [2]: very good herbicidal action | herbicidal action against harmful plants typical for rice crops, scored visually [3]: very good herbicidal action | selectivity (crop plants versus weeds) (crop plants): in some cases high selectivity

Cc1cc(C)c2c(c1)C(Nc1ncnc(N)n1)CCC2 (stereo not drawn) [Example 1]
herbicidal action against harmful plants, scored visually [1]: very good herbicidal action | herbicidal action against harmful plants, scored visually [2]: very good herbicidal action | herbicidal action against harmful plants typical for rice crops, scored visually [3]: very good herbicidal action | selectivity (crop plants versus weeds) (crop plants): in some cases high selectivity

Cc1cc(C)c2c(c1)C(Nc1ncnc(N)n1)CCS2 (stereo not drawn) [Example 79]
herbicidal action against harmful plants, scored visually [1]: very good herbicidal action | herbicidal action against harmful plants, scored visually [2]: very good herbicidal action | herbicidal action against harmful plants typical for rice crops, scored visually [3]: very good herbicidal action | selectivity (crop plants versus weeds) (crop plants): in some cases high selectivity

Nc1ncnc(NC2CCc3ccccc32)n1 (stereo not drawn) [Example 185]
herbicidal action against harmful plants, scored visually [1]: very good herbicidal action | herbicidal action against harmful plants, scored visually [2]: very good herbicidal action | herbicidal action against harmful plants typical for rice crops, scored visually [3]: very good herbicidal action | selectivity (crop plants versus weeds) (crop plants): in some cases high selectivity

Cc1ccc2c(c1)C(Nc1ncnc(N)n1)CC2 (stereo not drawn) [Example 146]
herbicidal action against harmful plants, scored visually [1]: very good herbicidal action | herbicidal action against harmful plants, scored visually [2]: very good herbicidal action | herbicidal action against harmful plants typical for rice crops, scored visually [3]: very good herbicidal action | selectivity (crop plants versus weeds) (crop plants): in some cases high selectivity

Source: patent US7479471B2, “2-Amino-4-bicyclylamino-6H-1,3,5-triazines, processes for their preparation and their use as herbicides and plant growth regulators” (Bayer CropScience GmbH, priority 2002, dated 2009)
